Source: patent US12240841B2, “FXR small molecule agonist and preparation method therefor and use thereof” (Shanghai Institute of Materia Medica, Chinese Academy of …, priority 2019, dated 2025)
pEC50: −log10 of the molar value. One block for each molecule: values may come before it.

Tests used:
[1] = test system: CCL4-induced hepatic fibrosis model mice; test: CCL4-induced hepatic fibrosis model mice; assay type: in vivo, mouse
Method: In this experiment, CCL4 induced hepatic fibrosis model mice were used to investigate the effect of long-term oral administration of compound 8 on hepatic fibrosis in the model mice.
Experimental method: Male C57BL/6j mice were injected intraperitoneally with 2 mL/kg, 10% CCl4 (dissolved in olive oil) three times a week to induce liver fibrosis model. Two weeks after the model was made, the blood was taken from the retro-ocular venous plexus of the mice to detect serum ALT, AST, TBA and LDH indicators. According to ALT, AST, TBA, LDH, body weight and other indicators, the mice were randomly divided into 5 groups. […] During the administration period, the animals' food intake and body weight were monitored. After 3 weeks of administration, the blood was taken from the retro-ocular venous plexus of the mice to detect serum ALT, AST, TBA and LDH indicators. After 6 weeks of administration, the blood was taken from the retro-ocular venous plexus and the mice were dislocated and sacrificed. The livers were taken out and weighed. Part of the liver was fixed with 4% paraformaldehyde, and part of the liver was frozen at −80° C. During the whole experiment, another 10 mice in the same cage were intraperitoneally injected with the same volume of olive oil as the system normal control group (WT).
This experiment detected indicators such as the levels of liver function indicators ALT, AST, TBA, LDH in serum, the expression of α-SMA and Col1α1 gene levels in the liver, and the pathological changes of the liver (Sirius scarlet stain), etc., thereby reflecting whether the compound has the effect of relieving liver fibrosis.

FXR receptor = molecular target: T1, FXR receptor (Homo sapiens, UniProt Q96RI1); test: FXR activity at the cell level (FXRE luciferase reporter in 293T cells); assay type: cell-based; settings: 293T cells; for Activity relative to OCA (%) 10 μM: luciferase reporter; for pEC50: FXRE luciferase reporter, read-out: EC50 (cell level)
T1 construct: expressed in transfected cells; host or cells: 293T cells
T1 sequence (Q96RI1 1-486): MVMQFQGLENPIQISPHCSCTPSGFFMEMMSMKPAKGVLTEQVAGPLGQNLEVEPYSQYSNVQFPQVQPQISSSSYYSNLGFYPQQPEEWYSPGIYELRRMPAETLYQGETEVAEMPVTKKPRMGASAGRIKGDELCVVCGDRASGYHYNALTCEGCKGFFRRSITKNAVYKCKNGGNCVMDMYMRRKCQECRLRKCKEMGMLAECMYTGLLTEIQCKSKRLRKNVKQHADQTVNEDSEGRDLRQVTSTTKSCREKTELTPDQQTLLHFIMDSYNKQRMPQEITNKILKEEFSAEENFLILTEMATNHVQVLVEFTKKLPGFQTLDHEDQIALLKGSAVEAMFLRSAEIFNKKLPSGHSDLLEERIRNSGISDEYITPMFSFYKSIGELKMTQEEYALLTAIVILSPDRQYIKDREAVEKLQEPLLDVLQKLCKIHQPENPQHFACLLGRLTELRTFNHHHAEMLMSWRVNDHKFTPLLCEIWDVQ
Method: The cells were cultured for 24 hours to ensure plasmid expression. Then the FXR receptor agonist to be tested was added and acted for 18 hours. The fluorescence intensity was detected using luciferase kit (steady-Glo Luciferase Assay system) to reflect the compound's activation efficiency on the FXR receptor. […] The appropriate concentration interval was selected, and the dose-dependent relationship, that is, the EC50 value, was calculated.

[2] = molecular target: T2, recombinant GST-FXR fusion protein (Homo sapiens, UniProt Q96RI1); test: FXR activity at the molecular level (AlphaScreen); assay type: biochemical
T2 sequence (Q96RI1 1-486): T1 sequence (Q96RI1 1-486)
Method: Test Method for FXR Activity at the Molecular Level
FXR activity was determined using recombinant GST-FXR fusion protein by Perkin Elmer's AlphaScreen detection reagent. The reaction in this method was carried out in a 384-well plate, and the total reaction volume was 15 μL. The mixture of protein, agonist, co-regulatory factor, AlphaScreen® acceptor beads and AlphaScreen® donor beads was reacted in a buffer containing Tris-HCl 50 mM (pH7.4), 50 mM NaCl, BSA 0.1%, and 1 mM DTT. The FXR activity was reflected by the fluorescence signal intensity at 570 nm wavelength detected by the Envision fluorescence detector. The value of EC50 was calculated by the software Graphpad Prism 5.

[3] = test system: TAA-induced hepatic fibrosis model rats; test: TAA-induced hepatic fibrosis model rats; assay type: in vivo, rat
Method: 1) Pharmacodynamic Evaluation of Compound 1 (LXF-32) on TAA-Induced Hepatic Fibrosis Model Rats
In this experiment, TAA induced hepatic fibrosis model rats were used to investigate the effect of long-term oral administration of compound 1 on hepatic fibrosis in the model rats.
Experimental method: Male SD rats were intraperitoneally injected with thioacetamide (TAA, dissolved in normal saline) at a dose of 150 mg/kg three times a week to induce a liver fibrosis model. Four weeks after the model was made, the blood was taken from the retro-ocular venous plexus of the rats to detect serum ALP indicators. […] During the administration period, the animal's food intake and body weight were monitored. After 2 weeks of administration, the blood was taken from the retro-ocular venous plexus of the rats to detect serum ALP indicators. After 4 weeks of administration, the blood was taken from the retro-ocular venous plexus and the rats were dislocated and sacrificed. The livers were taken out and weighed. Part of the liver was fixed with 4% paraformaldehyde, and part of the liver was frozen at −80° C. During the whole experiment, another 8 rats in the same cage were injected intraperitoneally with the same volume of normal saline as the system normal control group (WT). This experiment detected indicators such as the level of liver function index ALP in serum, the expression of α-SMA and Col1α1 (fibrosis-related genes) gene level in the liver, the content of hydroxyproline (a characteristic amino acid of collagen) in the liver, and the pathological changes of the liver (Sirius scarlet stain), etc., thereby reflecting whether the compound has the effect of relieving liver fibrosis.

[4] = high-dose 20 mg/kg oral once a day, 6 weeks
[5] = low-dose 6 mg/kg oral once a day, 6 weeks
[6] = 20 mg/kg oral once a day, 4 weeks

Activity relative to OCA (%) 10 μM (FXR receptor): 88%
pEC50 (FXR receptor): 8.30
pEC50 [2]: 6.98
SMILES: O=c1[nH]c(-c2ccc(N3CCC(OCc4c(-c5ccccc5C(F)(F)F)noc4C4CC4)CC3)cc2)no1 [Example 8]
collagen content in the liver (Sirius scarlet stained sections) ([1]; high-dose 20 mg/kg): significantly reduced
effect on LDH in serum [1, 4]: little effect
level of ALT in serum [1, 4]: significantly reduced
level of AST in serum [1, 4]: significantly reduced
level of TBA in serum [1, 4]: significantly reduced
expression of col1α1 in the liver ([1]; high-dose 20 mg/kg, 6 weeks): down-regulated
expression of α-SMA in the liver ([1]; high-dose 20 mg/kg, 6 weeks): significantly down-regulated
effect on liver fibrosis (summary) ([1]; long-term administration): a certain alleviating effect
collagen content in the liver (Sirius scarlet stained sections) ([1]; low-dose 6 mg/kg): significantly reduced
effect on liver collagen content compared with the low-dose OCA group ([1]; low-dose 6 mg/kg): slightly better
effect on LDH in serum [1, 5]: little effect
level of ALT in serum [1, 5]: significantly reduced
level of AST in serum [1, 5]: significantly reduced
level of TBA in serum [1, 5]: significantly reduced
effect on serum liver function indicators compared with the low-dose OCA group ([1]; low-dose 6 mg/kg, 6 weeks): slightly better

Activity relative to OCA (%) 10 μM (FXR receptor): 109%
pEC50 (FXR receptor): 6.96
pEC50 [2]: 6.35
SMILES: O=c1[nH]c(-c2cccc(N3CCC(OCc4c(-c5c(Cl)cccc5Cl)noc4C4CC4)CC3)c2)no1 [Example 1]
collagen content in the liver (Sirius scarlet stained sections) [3, 6]: reduced the collagen content in the liver, because there were large differences within the model group, and there was no statistical difference
content of hydroxyproline in liver tissue [3, 6]: reduced
expression of Col1α1 mRNA in liver tissue [3, 6]: significantly down-regulated
expression of α-SMA mRNA in liver tissue [3, 6]: significantly down-regulated
level of ALP in serum ([3]; 20 mg/kg oral once a day, 4 weeks, vs model control): significantly reduced
effect on liver fibrosis (summary) ([3]; long-term administration): a certain alleviating effect

SMILES: CC[C@H]1[C@@H](O)[C@@H]2[C@H](CC[C@]3(C)[C@@H]([C@H](C)CCC(=O)O)CC[C@@H]23)[C@@]2(C)CC[C@@H](O)C[C@@H]12 [OCA, reference compound]
level of ALT in serum [1, 4]: significantly reduced
level of AST in serum [1, 4]: significantly reduced
level of TBA in serum [1, 4]: significantly reduced
level of TBA in serum [1, 5]: lowering effect
